Laboratory results reported in patent publication US12263248B2, “Compounds and compositions for intracellular delivery of therapeutic agents” (ModernaTX, Inc., priority 2018, dated 2025).

Experiments:
[1] = Particle size and polydispersity index of nanoparticle compositions (Zetasizer Nano ZS); type: physicochemical; conditions: Table 1A; for Size (nm): lipid:DSPC:cholesterol:PEG-DMG 50:10:38.5:1.5 mol %
How it was run: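 Nanoparticle compositions are diluted in 1×PBS, then size and polydispersity index are read on a Zetasizer Nano ZS instrument.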

[2] = Encapsulation efficiency of RNA (QUANT-IT RIBOGREEN RNA assay); type: physicochemical; conditions: Table 1A
How it was run: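 RiboGreen fluorescence (ex ~480, em ~520 nm) compared between intact samples and Triton X-100-lysed samples after 15 min at 37 °C in TE buffer, pH 7.5. Percent free RNA is the blank-corrected intact/disrupted ratio.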

[3] = Apparent (surface) pKa of the LNP formulation (TNS assay); type: physicochemical; conditions: Table 1A
How it was run: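 LNP (0.04 mg/mL mRNA) mixed with TNS reagent in 21 buffers spanning about pH 3-12, in triplicate; fluorescence plotted against pH as sigmoidal curve. Apparent pKa taken as […] curve inflection point; validated in 1× PBS and 20 mM Tris w/8% sucrose.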

luciferase (Luc) mRNA [4] = experiment: Luc expression (total flux) after intramuscular administration; type: in vivo, mice; conditions: for i.m. Lipid/MC3 0.01 mpk, Luc, 6 h: Table 3B; for Total flux (p/s) 0.01 mpk Dose: Table 5B
Description: In order to monitor how effectively various nanoparticle compositions deliver therapeutic and/or prophylactics to targeted cells, different nanoparticle compositions including a particular therapeutic and/or prophylactic (for example, a modified or naturally occurring RNA such as an mRNA) are prepared and administered to rodent populations. Mice are intravenously, intramuscularly, intraarterially, or intratumorally administered a single dose including a nanoparticle composition with a formulation such as those provided in Example 3. In some instances, mice may be made to inhale doses. Dose sizes may range from 0.001 mg/kg to 10 mg/kg, where 10 mg/kg describes a dose including 10 mg of a therapeutic and/or prophylactic in a nanoparticle composition for each 1 kg of body mass of the mouse. A control composition including PBS may also be employed.
Sample formulations including both modified luciferase (Luc) mRNA and H10 mRNA were prepared and administered intramuscularly and the resulting expression and immunogenicity were evaluated simultaneously. Formulations including compounds according to Formula (I), (IA), (IB), (II), (IIa), (IIb), (IIc), (IId), (IIe), (IIf), (IIg), (III), (VI), (VI-a), (VII), (VIII), (VIIa), (VIIIa), (VIIIb), (VIIb-1), (VIIb-2), (VIIb-3), (VIIc), (VIId), (VIIIc), or (VIIId) were prepared and administered at doses of 0.001 and 0.01 mpk (e.g., doses of 0.0005 mpk of a formulation including Luc mRNA and a formulation including H10 mRNA or doses of 0.005 mpk of a formulation including Luc mRNA and a formulation including H10 mRNA).
Sample formulations including modified luciferase (Luc) mRNA prepared and administered intramuscularly and the resulting expression and immunogenicity were evaluated simultaneously. Formulations including compounds according to Formula (I), (IA), (IB), (II), (IIa), (IIb), (IIc), (IId), (IIe), (IIf), (IIg), (III), (VI), (VI-a), (VII), (VIII), (VIIa), (VIIIa), (VIIIb), (VIIb-1), (VIIb-2), (VIIb-3), (VIIc), (VIId), (VIIIc), or (VIIId) were prepared and administered at dose of and 0.01 mpk.

luciferase (Luc) mRNA [5] = experiment: Luc expression, whole body bioluminescence after intravenous administration to mice; type: in vivo; conditions: for Total Flux 3 hours / Total Flux 6 hours / Total Flux 24 hours: Luc mRNA; for Fold increase in total body Luc Flux relative to MC3 at 6 h: Table 3A; for Fold increase in total body Luc Flux relative to MC3 at 6 h / 6 h Lipid/MC3 Avg. Luc Expression / Fold increase AUC Lipid/MC3 / AUC (h * p/s): i.v. administration; for 6 h Lipid/MC3 Avg. Luc Expression / Fold increase AUC Lipid/MC3 / AUC (h * p/s): Table 3C; for AUC (h * p/s): Luc
How it was run: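 Luc mRNA nanoparticle formulations given intravenously to mice (n=6) at 0.5 mg/kg; whole-body bioluminescence imaged at 3, 6 and 24 h. CD-1 mice received IP D-luciferin (200 μL of 15 mg/mL) 15 min before imaging; total flux quantified by region of interest.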

luciferase (Luc) mRNA [6] = experiment: Luc expression in liver, lung, spleen and femur 6 hours after intravenous administration; type: in vivo; conditions: mice, 0.5 mpk; for Total Flux Liver / Total Flux Lung / Total Flux Spleen: intravenous
How it was run: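 LNP-formulated mRNA given IV to mice (n=3) at 0.5 mpk; at 6 h, bioluminescence imaged ex vivo 15 min after IP D-luciferin (15 mg/mL, 200 μL), organs imaged within 25 min. Values are total flux by region of interest.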

[7] = 6 hours after intramuscular administration, 0.01 mpk

Compound	PDI [1]	Size (nm) [1] [nm]	EE (%) [2] [%]	pKa [3]	Total Flux 3 hours (luciferase (Luc) mRNA [5]; mice, i.v., 0.5 mg/kg)	Total Flux 6 hours (luciferase (Luc) mRNA [5]; mice, i.v., 0.5 mg/kg)	Total Flux 24 hours (luciferase (Luc) mRNA [5]; mice, i.v., 0.5 mg/kg)	Total Flux Liver (luciferase (Luc) mRNA [6])	Total Flux Lung (luciferase (Luc) mRNA [6])	Total Flux Spleen (luciferase (Luc) mRNA [6])	other results
CCCCCCCCCOC(=O)CCCCCCCN(CCCCCCCC(=O)OC(CCCCCCCC)CCCCCCCC)CCCN1C(=O)CNC1=O [Compound 174, Heptadecan-9-yl 8-((3-(2,5-dioxoimidazolidin-1-yl)propyl)(8-(nonyloxy)-8-oxooctyl)amino)octanoate]	0.21	84.4	99.0	6.65	–	–	–	–	–	–	i.m. Lipid/MC3 0.01 mpk, Luc, 6 h (luciferase (Luc) mRNA [4]; 0.01 mpk): 0.2
CCCCCCCCCOC(=O)CCCCCCCN(CCCCCCCC(=O)OC(CCCCCCCC)CCCCCCCC)CCCn1ccc(=O)[nH]c1=O [Compound 114, Heptadecan-9-yl 8-((3-(2,4-dioxo-3,4-dihydropyrimidin-1(2H)-yl)propyl)(8-(nonyloxy)-8-oxooctyl)amino)octanoate]	0.11	65.1	98.8	6.42	8.41E+07	5.98E+07	–	–	–	–	Total flux (p/s) 0.01 mpk Dose (luciferase (Luc) mRNA [4]; [7]): 3.31E+06 p/s
CCCCCCCCCOC(=O)CCCCCCCN(C)CCCCCCCC(=O)OC(CCCCCCCC)CCCCCCCC [Compound 123, Heptadecan-9-yl 8-(methyl(8-(nonyloxy)-8-oxooctyl)amino)octanoate]	–	–	–	6.27	4.06E+09	1.81E+10	5.18E+08	2.50E+08	1.78E+06	4.04E+06	Total flux (p/s) 0.01 mpk Dose (luciferase (Luc) mRNA [4]; [7]): 1.08E+07 p/s
CCCCCCCCCOC(=O)CCCCCCCN(CCCN)CCCCCCCC(=O)OC(CCCCCCCC)CCCCCCCC [Compound 121, Heptadecan-9-yl 8-((3-aminopropyl)(8-(nonyloxy)-8-oxooctyl)amino)octanoate]	–	–	–	8.50	1.29E+06	1.36E+06	–	–	–	–	Total flux (p/s) 0.01 mpk Dose (luciferase (Luc) mRNA [4]; [7]): 1.06E+06 p/s
CCCCCCCCCOC(=O)CCCCCCCN(CCCCCCCC(=O)OC(CCCCCCCC)CCCCCCCC)CCCn1cc(CO)nn1 [Compound 218, Heptadecan-9-yl 8-((3-(4-(hydroxymethyl)-1H-1,2,3-triazol-1-yl)propyl)(8-(nonyloxy)-8-oxooctyl)amino)octanoate]	0.21	81.4	98.8	6.59	–	–	–	–	–	–	Novel lipid/MC3 expression ratio, 6 hr. time point, i.m. Luc (luciferase (Luc) mRNA [4]; intramuscular, relative to MC3 formulation): 1.77
CCCCCCCCCOC(=O)CCCCCCCN(CCCCCCCC(=O)OC(CCCCCCCC)CCCCCCCC)CCCN(C)S(C)(=O)=O [Compound 173, Heptadecan-9-yl 8-((3-(N-methylmethylsulfonamido)propyl)(8-(nonyloxy)-8-oxooctyl)amino)octanoate]	0.16	75.5	92.89	6.31	–	–	–	–	–	–	i.m. Lipid/MC3 0.01 mpk, Luc, 6 h (luciferase (Luc) mRNA [4]; 0.01 mpk): 0.6
CCCCCCCCCOC(=O)CCCCCCCN(CCCCCCCC(=O)OC(CCCCCCCC)CCCCCCCC)CCCOC(=O)NC [Compound 175, Heptadecan-9-yl 8-((3-((methylcarbamoyl)oxy)propyl)(8-(nonyloxy)-8-oxooctyl)amino)octanoate]	0.16	65.7	94.8	6.15	–	–	–	–	–	–	i.m. Lipid/MC3 0.01 mpk, Luc, 6 h (luciferase (Luc) mRNA [4]; 0.01 mpk): 0.1
CCCCCCCCCOC(=O)CCCCCCCN(CCO)CCCCCCCC(=O)OC(CCCC)CCCC [Compound 57, nonan-5-yl 8-((2-hydroxyethyl)(8-(nonyloxy)-8-oxooctyl)amino) octanoate]	0.16	128.4	94.33	–	6.69E+06	6.21E+06	4.16E+05	9.36E+05	3.18E+04	2.47E+06	Fold increase in total body Luc Flux relative to MC3 at 6 h (luciferase (Luc) mRNA [5]): 0.00056; flux at all timepoints measured (luciferase (Luc) mRNA [5]; mice, i.v., 0.5 mg/kg, 3, 6 and 24 hour, in words): significantly lower flux; Total flux, 0.001 mpk Dose (luciferase (Luc) mRNA [4]; 6 hours after intramuscular administration, 0.001 mpk, Luc mRNA and H10 mRNA): 1.16E+05 p/s; Total flux, 0.01 mpk Dose (luciferase (Luc) mRNA [4]; 6 hours after intramuscular administration, 0.01 mpk, Luc mRNA and H10 mRNA): 2.23E+05 p/s
CCCCCCCCC(CCCCCC)C(=O)OCCCCCCCCCN(CCO)CCCCCCCCCOC(=O)C(CCCCCC)CCCCCCCC (stereo not drawn) [Compound 133, ((2-Hydroxyethyl)azanediyl)bis(nonane-9,1-diyl) bis(2-hexyldecanoate)]	0.098	66.0	91.48	6.38	3.32E+10	2.93E+10	4.74E+08	2.94E+09	3.18E+06	1.77E+07	6 h Lipid/MC3 Avg. Luc Expression (luciferase (Luc) mRNA [5]): 4.02; Fold increase AUC Lipid/MC3 (luciferase (Luc) mRNA [5]): 4.39; AUC (h * p/s) (luciferase (Luc) mRNA [5]): 3.62E+11 h * p/s
CCCCCCCCCOC(=O)CCCCCCCN(CCO)CCCCCCCC(=O)OC(CCC)CCCCCCCC (stereo not drawn) [Compound 34, dodecan-4-yl 8-((2-hydroxyethyl)(8-(nonyloxy)-8-oxooctyl)amino) octanoate]	0.14	133.8	92.52	6.64	1.06E+10	1.48E+10	6.69E+08	2.08E+09	9.49E+06	2.40E+08	Fold increase in total body Luc Flux relative to MC3 at 6 h (luciferase (Luc) mRNA [5]): 0.34; Flux in the spleen (luciferase (Luc) mRNA [6]; i.v., in words): highest
CCCCCCCCCOC(=O)CCCCCCCN(CCO)CCCCCCCC(=O)OC1CCC(CCCCC)CC1 (stereo not drawn) [Compound 79, Nonyl 8-((2-hydroxyethyl)(8-oxo-8-((4-pentylcyclohexyl)oxy)octyl)amino)octanoate]	0.18	93.7	89.1	7.53	3.23E+08	5.27E+08	3.08E+07	3.15E+06	6.13E+04	6.45E+05	–
CCCCCCCCC(C)OC(=O)CCCCCCCN(CCO)CCCCCCCOC(=O)C(CCCCCCCC)CCCCCCCC (stereo not drawn) [Compound 135, 7-((8-(Decan-2-yloxy)-8-oxooctyl)(2-hydroxyethyl)amino)heptyl 2-octyldecanoate]	0.130	89.5	90.20	6.47	1.24E+11	9.90E+10	2.51E+09	1.65E+10	2.71E+07	1.39E+08	6 h Lipid/MC3 Avg. Luc Expression (luciferase (Luc) mRNA [5]): 13.6; Fold increase AUC Lipid/MC3 (luciferase (Luc) mRNA [5]): 15.2; AUC (h * p/s) (luciferase (Luc) mRNA [5]): 1.25E+12 h * p/s; total flux at 3 hours (luciferase (Luc) mRNA [5]; mice, i.v., 0.5 mg/kg, comparison in words): highest; Flux in the liver (luciferase (Luc) mRNA [6]; i.v., in words): highest
